Results as given in paper PMC8778670, “Identification of an Orally Bioavailable, Brain-Penetrant Compound with Selectivity for the Cannabinoid Type 2 Receptor” (Molecules, 2022).
Values joined by “and” are separate entries in the source; they are usually repeats but may differ in a detail not shown here. Equal entries are not always repeated. Where two headings read alike, the source gives them in different places.

Assays:
[1] = PK evaluation in CD-1 mice (plasma, brain, kidney, liver; i.v. and oral); format: in vivo; conditions: for bioavailability: oral vs intravenous 5 mg/kg
Method: The primary stock solutions of 4k and phenacetin (internal standard, IS) were prepared in methanol at a concentration of 1.0 mg/mL. Working solutions of calibration standards and quality control (QC) samples were prepared by dilution with methanol and stored at −20 °C. A working stock of the IS solution (20 ng/mL) was prepared in methanol and stored at −20 °C.
Chromatography was performed on an Acquity^TM UPLC system (Waters Corp, Milford, MA, USA) with an autosampler temperature at 10 °C. Waters Acquity UPLC® HSS C18 column (3.0 × 50 mm, 1.8 µm particle size) was used for chromatographic separation with linear gradient elution consisting of (A) 90% acetonitrile and (B) 10% 0.2% formic acid in Milli-Q water as mobile phases. The flow rate was set at 0.30 mL/min, and the injection volume was 2 µL.
An Acquity Tandem Quadrupole Mass Detector (Xevo TQ-S; Waters Corp, Milford, MA, USA) in positive electrospray ionization mode was used for mass spectrometric detection. For collision-induced dissociation, argon was used as collision gas. The cone voltage and collision energy were set at 60 V and 34 V for 4k and 46 V and 26 V for the IS, respectively. Quantification was performed using the monitoring of multiple reaction monitoring (MRM) of following transitions: m/z 409.0/220.9 for 4k and m/z 180.0/92.7 for IS. Retention times of 4k and IS were 2.85 and 1.81 min, respectively.
A simple protein precipitation method was followed for extraction of 4k from mice plasma. To an aliquot of 50 μL of plasma or tissue (brain, liver, or kidney) samples, IS solution (5 μL of 20 ng/mL) was added and mixed for 15 s on a cyclomixer (Thermo Scientific, Indianapolis, IN, USA). After precipitation with 200 μL of acetonitrile, the mixture was vortexed for 2 min, followed by centrifugation for 10 min at 14,000 rpm on an accuSpin Micro 17R (Fisher Scientific, Suwanee, GA, USA) at 5 °C. An aliquot of ~150 μL of clear supernatant was transferred into vials and 2 μL was injected onto LC-MS/MS system for analysis.
Male CD-1 mice (N = 48) were obtained from Envigo (St. Louis, MO, USA) and maintained on a 12:12 h reversed dark/light cycle (lights off at 07:00 h) with ad libitum access to food and water. Following a ~4 h fast, animals were randomly assigned to one of two groups. Group I and II animals (n = 24/group, weight range 25–30 g) received compound 4k (5 mg/kg) orally (in the form of a solution, prepared using 10% absolute alcohol, 10% cremophor, and 80% Milli-Q water) or intravenously (i.v., using solution formulation comprising 10% absolute alcohol, 10% cremophor, and 80% normal saline), respectively. At 0.5, 1, 2, 4, 8, and 24 h post administration, animals were euthanized, blood was collected in K2. EDTA-containing polypropylene tubes and, tissues were collected (brain, liver, and kidney). Plasma was harvested by centrifuging the blood using Eppendorf 5430R Centrifuge (Germany) at 5000 rpm for 5 min and stored frozen at −80 °C until analysis.
Brain, liver, and kidney tissues were homogenized in separate 15 mL round-bottom screw-capped vials in phosphate buffered saline (5 volumes of each tissue mass) with a homogenizer (Polytron®) and stored at −80 °C until analysis. Plasma or tissue homogenates (50 μL) were spiked with IS and processed as mentioned in sample preparation section.
Plasma and tissue concentration and time data of compound 4k were analyzed by a non-compartmental method using WinNonlin Version 5.3 (Pharsight Corporation, Mountain View, CA, USA).

human CB2 receptors = biological target: T1, human CB2 receptors (Homo sapiens, UniProt P34972); assay: Cannabinoid receptor [3H]CP-55,940 displacement binding assay, CB2
T1 construct: expressed in transfected cells; host or cells: CHO cells
T1 sequence (P34972 whole entry): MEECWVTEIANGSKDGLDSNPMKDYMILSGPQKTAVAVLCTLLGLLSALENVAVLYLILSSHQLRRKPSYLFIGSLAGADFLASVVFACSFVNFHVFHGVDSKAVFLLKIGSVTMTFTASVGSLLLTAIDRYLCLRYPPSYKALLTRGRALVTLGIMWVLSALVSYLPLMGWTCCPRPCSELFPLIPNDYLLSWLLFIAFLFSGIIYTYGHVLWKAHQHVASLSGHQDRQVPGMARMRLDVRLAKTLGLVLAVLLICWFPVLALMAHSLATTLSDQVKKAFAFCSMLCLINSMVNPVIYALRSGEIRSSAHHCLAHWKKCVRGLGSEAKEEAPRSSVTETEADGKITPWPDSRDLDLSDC
Method: The affinities of the compounds for CB1 and CB2 receptors were examined using displacement assays, as previously described. Briefly, cell membranes from CHO cells expressing human CB1 or human CB2 receptors were isolated using differential centrifugation. Test compounds reconstituted in DMSO and were incubated with the isolated membrane in binding buffer (50 mM Tris-HCl, 1 mM EDTA, 3 mM MgCl2, 5 mg/mL BSA, pH 7.4) along with 2.5 nM [^3H]CP-55,940. Total binding was assessed in the presence of equal concentration of DMSO, while non-specific binding was determined in the presence of 10 μM CP-55,940, and background binding was determined in wells lacking membrane. Following incubation at 30 °C for 60 min, the binding reactions were terminated by vacuum filtration through Whatman GF/C filters. The filters were then washed twice with ice-cold buffer (50 mM Tris-HCl, 1 mg/mL BSA). Liquid scintillation cocktail was added to each well and the total tritiated counts per minute were analyzed using a TopCount scintillation counter. Background counts were subtracted from all wells and the percent displacement from total binding was calculated.
The compounds were initially screened at 10 μM concentrations. If they produced at least ±30% displacement of the radioligand, then full competition curves were constructed. Ki values were calculated using GraphPad Prism (San Diego, CA, USA) and Kd values determined using a 1 site fit. All assays were run in technical and biological replicates so that the n = 5–6.

[2] = Stability studies under physiological pH; format: physicochemical; conditions: 4k compared to 4q, data not reported
[3] = male, CD-1, mouse, intravenous 5 mg/kg, plasma
[4] = male, CD-1, mouse, oral 5 mg/kg, plasma

## O=C1c2ccc(Cl)cc2N/C(=N/N=C/c2cc3ccccc3s2)[C@@H]2CCCN12 [Compound 4k]
[1]; intravenous 5 mg/kg, brain
  AUC0–∞: 5685 ng·h/g
[1]; intravenous 5 mg/kg, brain, 5 mg/kg
  t1/2: 6.54 h
[1]; intravenous 5 mg/kg, kidney
  AUC0–∞: 13272 ng·h/g
[1]; intravenous 5 mg/kg, liver
  AUC0–∞: 19991 ng·h/g
[1]; intravenous 5 mg/kg, liver, 5 mg/kg
  t1/2: 9.26 h
[1]; intravenous 5 mg/kg, plasma
  clearance as share of hepatic blood flow in mice: 26%
[1]; intravenous 5 mg/kg, plasma, 5 mg/kg
  t1/2: 6.91 h
[1]; male, CD-1, mouse, brain and plasma, intravenous 5 mg/kg, read-out: mean brain to plasma ratio
  Kp: 3.67
[1]; male, CD-1, mouse, brain and plasma, oral 5 mg/kg, read-out: mean brain to plasma ratio
  Kp: 4.61
[1]; male, CD-1, mouse, brain, iv, 5 mg/kg, intravenous 5 mg/kg, brain, read-out: t1/2 (converted)
  half-life: 6.5 h
[1]; male, CD-1, mouse, brain, po, 5 mg/kg, oral 5 mg/kg, brain, read-out: t1/2 (converted)
  half-life: 22.9 h
[1]; male, CD-1, mouse, kidney and plasma, intravenous 5 mg/kg, read-out: mean kidney to plasma ratio
  Kp: 14.5
[1]; male, CD-1, mouse, kidney and plasma, oral 5 mg/kg, read-out: mean kidney to plasma ratio
  Kp: 7.25
[1]; male, CD-1, mouse, kidney, iv, 5 mg/kg, intravenous 5 mg/kg, kidney, read-out: t1/2 (converted)
  half-life: 10.2 h
[1]; male, CD-1, mouse, kidney, po, 5 mg/kg, oral 5 mg/kg, kidney, read-out: t1/2 (converted)
  half-life: 16.7 h
[1]; male, CD-1, mouse, liver and plasma, intravenous 5 mg/kg, read-out: mean liver to plasma ratio
  Kp: 11.5
[1]; male, CD-1, mouse, liver and plasma, oral 5 mg/kg, read-out: mean liver to plasma ratio
  Kp: 9.89
[1]; male, CD-1, mouse, liver, iv, 5 mg/kg, intravenous 5 mg/kg, liver, read-out: t1/2 (converted)
  half-life: 9.3 h
[1]; male, CD-1, mouse, liver, kidney, other: oral or intravenous, 5 mg/kg, oral or intravenous route, liver and kidneys, read-out: elimination half-lives in the liver and kidneys
  half-life: 9.3 to 16.7 h
[1]; male, CD-1, mouse, liver, po, 5 mg/kg, oral 5 mg/kg, liver, read-out: t1/2 (converted)
  half-life: 13 h
[1]; male, CD-1, mouse, plasma, iv, 5 mg/kg, intravenous 5 mg/kg, plasma, read-out: t1/2 (converted)
  half-life: 6.9 h
[1]; male, CD-1, mouse, plasma, po, 5 mg/kg, oral 5 mg/kg, plasma, read-out: t1/2 (converted)
  half-life: 16.4 h
[1]; male, CD-1, mouse, intravenous 5 mg/kg, brain, read-out: Cmax or C0
  Cmax: 2260 ng/g
[1]; male, CD-1, mouse, intravenous 5 mg/kg, brain, read-out: volume of distribution
  Vd: 8.82 ± 2.43 L/kg
[1]; male, CD-1, mouse, intravenous 5 mg/kg, kidney, read-out: Cmax or C0
  Cmax: 4720 ng/g
[1]; male, CD-1, mouse, intravenous 5 mg/kg, kidney, read-out: volume of distribution
  Vd: 5.63 ± 0.37 L/kg
[1]; male, CD-1, mouse, intravenous 5 mg/kg, liver, read-out: Cmax or C0
  Cmax: 13500 ng/g
[1]; male, CD-1, mouse, intravenous 5 mg/kg, liver, read-out: volume of distribution
  Vd: 3.38 ± 0.18 L/kg
[1]; [3]
  AUC(0-inf): 4020 ng·h/mL
  clearance: 23.5 mL/min/kg
[1]; male, CD-1, mouse, intravenous 5 mg/kg, plasma, read-out: Cmax or C0
  C0: 4340 ng/mL
[1]; male, CD-1, mouse, intravenous 5 mg/kg, plasma, read-out: Vd
  Vd: 14.3 L/kg
[1]; male, CD-1, mouse, oral 5 mg/kg, brain
  Tmax: 1.25 h
[1]; male, CD-1, mouse, oral 5 mg/kg, brain, read-out: Cmax
  Cmax: 602 ng/g
[1]; male, CD-1, mouse, oral 5 mg/kg, kidney
  Tmax: 0.75 h
[1]; male, CD-1, mouse, oral 5 mg/kg, kidney, read-out: Cmax
  Cmax: 795 ng/g
[1]; male, CD-1, mouse, oral 5 mg/kg, liver
  Tmax: 0.75 h
[1]; male, CD-1, mouse, oral 5 mg/kg, liver, read-out: Cmax
  Cmax: 1890 ng/g
[1]; [4]
  AUC(0-inf): 739 ng·h/mL
  Tmax: 0.88 h
[1]; male, CD-1, mouse, oral 5 mg/kg, plasma, read-out: Cmax
  Cmax: 198 ng/mL
[1]; male, CD-1, mouse, brain, read-out: F (apparent oral bioavailability)
  bioavailability: 42.5 ± 5.75%
[1]; male, CD-1, mouse, plasma, read-out: F (oral bioavailability)
  bioavailability: 18%
[1]; oral 5 mg/kg, brain, 5 mg/kg
  AUC0–∞: 3069 ± 64 ng·h/g and 3069 ng·h/g
[1]; oral 5 mg/kg, kidney, 5 mg/kg
  AUC0–∞: 5223 ± 44.75 ng·h/g and 5223 ng·h/g
[1]; oral 5 mg/kg, liver, 5 mg/kg
  AUC0–∞: 6423 ± 571 ng·h/g and 6423 ng·h/g
Human CB2 receptors; 1 h, 10 µM compound, CHO cell membranes, 2.5 nM radioligand, read-out: Displacement of [3H]CP-55,940 from CB2
  inhibition at 10 µM: 84.6%
Human CB2 receptors; CB2, full competition curves vs [3H]CP-55,940
  Ki: 146 nM
[2]
  tolerance under physiological pH (stability): better tolerance
